One experiment addresses JAK3 (Homo sapiens, UniProt P52333). To be noted: read-out: IC50 for JAK3 kinase inhibition; cited from earlier work.
Experiment [1] concerns TF1 cells. Briefly: Annexin V and dead cell flow cytometric apoptosis analysis. To be noted: TF1, IC25, IC50, IC75, 24 h. Type of experiment: cell-based, human.
The next experiment relates to HEL cells. Nature of the experiment: Cytotoxicity, PrestoBlue assay, HEL cells. Type of experiment: cell-based. The conditions noted are these: Homo sapiens, 72 h, read-out: IC50 toward HEL cells.
The test system of experiment [2] is TF1 cells. Nature of the experiment: Cytotoxicity, PrestoBlue assay, TF1 cells. Type of experiment: cell-based. To be noted: Homo sapiens, TF-1, 72 h, read-out: IC50 toward TF1 cells.
The next experiment concerns JAK1. The conditions noted are these: read-out: IC50 for JAK1; cited from earlier work.
The subject of a further experiment is SET-2 cells. The conditions noted are these: human megakaryoblastic cell line; cited from earlier work.

These results are taken from article PMC9494680 (ACS Omega, 2022).

JAK3, sequence (P52333 781-1124 limits assumed): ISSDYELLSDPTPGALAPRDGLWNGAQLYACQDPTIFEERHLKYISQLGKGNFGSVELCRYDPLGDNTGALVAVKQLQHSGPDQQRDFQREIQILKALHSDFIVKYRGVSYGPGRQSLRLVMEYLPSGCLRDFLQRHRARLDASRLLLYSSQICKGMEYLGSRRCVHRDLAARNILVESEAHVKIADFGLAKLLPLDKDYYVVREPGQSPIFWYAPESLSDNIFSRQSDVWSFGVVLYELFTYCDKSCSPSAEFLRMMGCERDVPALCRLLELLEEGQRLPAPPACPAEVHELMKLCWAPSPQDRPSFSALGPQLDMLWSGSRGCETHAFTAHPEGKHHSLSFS

Take `COc1cc2ncnc(Nc3ccc(O)cc3)c2cc1OC` [WHI-P131]: the concentration for half-maximal inhibition (IC50) at JAK3 is 9 µM.

For the compound `N#CC[C@H](C1CCCC1)n1cc(-c2ncnc3[nH]ccc23)cn1` [ruxolitinib], in the experiment with TF1 cells [1], the “Percentage of cell apoptosis vs dose, annexin V” value is “increased in a dose-dependent manner”. Moreover, the results for the IC50 with HEL cells, in the experiment with TF1 cells [2] and with JAK1 were 19.3 ± 0.64 µM, 10.7 ± 0.88 µM and […], respectively.

Take `C[C@@H]1CCN(C(=O)CC#N)C[C@@H]1N(C)c1ncnc2[nH]ccc12` [tofacitinib]: in the experiment with TF1 cells [1], the “Percentage of cell apoptosis vs dose, annexin V” value is “increased in a dose-dependent manner”.

For `Fc1cc(-c2cccc3ncc(-c4cnn(C5CCNCC5)c4)nc23)cc(F)c1CN1CCOCC1` [NVP-BSK805], the “Apoptosis induction in SET-2 cells” value in the experiment with SET-2 cells is “induced apoptosis in SET-2 cells”.
